Results: ChEMBL document CHEMBL1157973, “ent-Trachylobane diterpenoids from Xylopia langsdorffiana” (J Nat Prod, 2006)

Key:
V79 = test: Cytotoxicity against chinese hamster V79 cells by MTT assay; type: cell-based; settings: Cricetulus griseus
Hepatocyte = test: Cytotoxicity against Wistar rat hepatocytes cells by MTT assay; type: cell-based
K562 = test: Cytotoxicity against human K562 cells; type: functional, cell-based

CC(=O)O[C@@H]1CC2[C@@](C)(C(=O)O)CCC[C@@]2(C)[C@@H]2C[C@@H]3C4C[C@@]21C[C@]43C (stereo partly drawn)
IC50 (V79): 224 µM | IC50 (Hepatocyte): 231 µM | IC50 (K562): 200 µM
